Consider three molecules from patent US8859513B2, “Use of 1-beta-D-ribofuranosyl-1H-1,2,4-triazole-3-carboxamide for the treatment of infectious salmon anemia” (Laboratorio de Diagnostico Gam, S.A., priority 2010, dated 2014).

Data set [1] relates to ISA virus. Kind of data set: Inhibition assay of the replicative cycle of ISAV in SHK-1 cells (real-time RT-PCR of supernatant). It counts as cell-based, Infectious Salmon Anemia Virus.
Data set [2] concerns ISA virus. Conditions: for hematocrit: untreated infected C3 42.1%.
Data set [3] concerns ISA virus. The note with it: 400 μg/Kg intraperitoneal.
In data set [4] the test system is VHSV virus (Viral Hemorrhagic Septicemia Virus). The note with it: cited from earlier work.
A further data set relates to IPNV. The note with it: cited from earlier work.
The test system of a further data set is RNA viruses. The note with it: regularly shown, in general; read-out: EC50 values (effective concentration 50%); cited from earlier work.
The conditions of data set [5]: patients treated with Rebetol; cited from earlier work.
The nature of another data set: in vitro. Conditions: Atlantic salmon.
The nature of data set [6]: Toxicity in healthy uninfected smolt fish (tank C2), oral medicated feed. Conditions: tank C2, dose of 1600 μg/mL (so in the source), normal 44-64%.

pEC50: −log10 of the molar value. Converted amounts (≈) assume the structure as drawn. Read-outs that look alike come from different tables or passages of the source.

For `CCOC(=O)C1=C[C@@H](OC(CC)CC)[C@H](NC(C)=O)[C@@H](N)C1` [oseltamivir], the “inhibition of the replication of ISA virus” value in the data set with ISA virus [1] (concentrations as high as 300 μg/mL, FIG. 1) is recorded as “no more than 60%”.
Turning to `O=C(O)C1=C[C@@H](O)[C@@H](O)[C@H](O)C1` [shikimic acid], the viral replication inhibition entry with ISA virus [1] (up to concentrations of 300 μg/ml, FIG. 2) is “no viral replication inhibition”.
In the case of `NC(=O)c1ncn([C@@H]2O[C@H](CO)[C@@H](O)[C@H]2O)n1` [ribavirin, 1-beta-D-ribofuranosyl-1H-1,2,4-triazole-3-carboxamide], the EC50 in the data set on ISA virus [1] (Infectious salmon anemia virus, 72 h, read-out: concentration which inhibits 50% of ISA virus replication (EC50)) was about 0.4 µg/mL (≈ 1.64 µM). The “viral load in dead fish” value with ISA virus [2] (highest dose (T1) compared with T2 and untreated C3, FIG. 8) was “significantly lower”. In the data set on ISA virus [2] (highest dose (T1), FIG. 9), the “viral load in intraperitoneally infected fish” value is “lower”. The signs at necropsy entry in the data set on ISA virus [2] (infected treated fish of tanks T1 and T2, FIGS. 14 and 15) is “mild inflammatory signs”. The “viral load in intraperitoneally infected fish versus untreated (C3)” value with ISA virus [2] (lowest dose (T2), FIG. 9) is given as “practically the same”. Besides, the hematocrit was about 45% with ISA virus [2] (tank T1, dose 800 μg/mL (so in the source)) and about 45% in the data set with ISA virus [2] (tank T2, dose 400 μg/mL (so in the source)). Further, the “viral load versus untreated fish (C3)” value in the data set on ISA virus [2] (treated fish T1 (800 μg/kg) and T2 (400 μg/kg), heart, real-time RT-PCR) was “in all cases lower than that of the untreated fish”. In the data set on ISA virus [3], the “condition of the analyzed organs during necropsies” value is reported as “slight improvement”. In addition, the “viral load over treatment days” value with ISA virus [3] (heart, FIG. 17) is listed as “downward trend”. The RNA inhibition in data set [4] (25 μg/ml added at 0 hours post infection, at 10 hours post infection) was 99.8%. Also, the “inhibition of the virus” value in [4] (EPC cells, concentrations of 5, 10 and 25 μg/ml) is recorded as “strong inhibition”. Moreover, in the data set with IPNV (400 μg), the “effect of the higher dose on rate of death” value is listed as “produced no greater decrease in the rate of death”. Besides, the “decrease in rate of dead fish” value with IPNV (bath exposure once during two hours, increasing concentrations) is recorded as “about 5%”. The pEC50 in the data set with RNA viruses is at most 6.00. Besides, the primary toxicity result in [5] is “triggers hemolytic anemia”. This molecule gave a CC50 at 3 days in “in vitro” of over 400 µg/mL. The average hematocrit in [6] came out at 54%.
